Data set [1] deals with S100A4. The arrangement: method as in PMID 18410126. The settings on record: ref [4]; cited from earlier work.
The target of data set [2] is T1, S100A4Δ8C (Homo sapiens, UniProt P26447).
T1 construct: unable to crystallize the wild-type full-length S100A4 with myosin-IIA peptides; made in house; host or cells: E. coli BL21(DE3)*
The data set can be described thus: NMR titration of MIIA^1908-1923 into ^15N-labeled Ca^2+-bound S100A4Δ8C. The format is binding. As for the experimental part:
(§1) HSQC NMR data were collected at 37°C with a 600 MHz (600.13 MHz for protons) Bruker DMX NMR spectrometer equipped with pulsed-field gradients, four frequency channels, and a triple resonance, z-axis gradient cryogenic probe, Data were processed with NMRPipe, and proton chemical shifts were reported with respect to the H2O or HDO signal taken as 4.658 ppm relative to external trimethylsilylpropionic acid (0.0 ppm). The ^15 N chemical shifts were indirectly referenced as described previously using the following ratio of the zero-point frequency: 0.10132905 for ^15 N to ^1H [56].

The subject of data set [3] is S100A4. The settings on record: S100A4 bound to MIIA^1908-1923; ref [4]; cited from earlier work. The text has this:
In this regard, we examined whether this small peptide was sufficient to induce what is termed the “final folding” event that occurs upon S100 protein-target complex formation. […] As found for other wild-type and mutant S100 proteins [[6] ...

Data set [4] deals with Ca^2+-S100A4. Description: Paramagnetic relaxation, titration with spin-labeled MIIA^1893-1923-Cys-Proxyl. Format: binding, human. The settings on record: HSQC, 37°C, pH 6.5. As for the experimental part:
The beads containing the immobilized TCEP and other particulates were removed using a 0.45 μm Nanosep MF GHP centrifugal device (Pall Life Sciences) before the addition of 61 μl freshly prepared 50 mg/ml 3-maleimido-Proxyl (Sigma-Aldrich) in DMSO.
as §1

Data set [5] has as its system myosin-IIA rods. The settings on record: assembly-competent myosin-II rod constructs; ref [19], [20]; cited from earlier work. The text has this: Each heavy chain is comprised of an N-terminal motor domain that contains the ATP- and actin-binding sites, an intermediate rod domain that dimerizes to form an α-helical coiled-coil and a C-terminal tailpiece.
Data set [6] has as its target T2, S100A4 (Homo sapiens, UniProt P26447).
T2 construct: heteronuclear single quantum coherence spectrum (HSQC) of full-length Ca^2+-S100A4 at 600 MHz; made in house; host or cells: E. coli, M9 medium with 15N NH4Cl (BL21(DE3)* is named for the unlabelled protein)
The data set can be described thus: Sedimentation velocity of MIIA^1851-1960, S100A4 and S100A4/MIIA^1851-1960 mixtures. Format: physicochemical. As for the experimental part: Sedimentation equilibrium and velocity experiments were conducted at 22°C in a Beckman XL-I analytical ultracentrifuge using a Ti60 rotor and Raleigh interference optics. Wild-type S100A4 and MIIA^1851-1960 were dialyzed into 20 mM Tris pH 7.5, 150 mM KCl, 0.5 mM CaCl2, 1 mM TCEP and 0.02% NaN3 and clarified by ultracentrifugation at 80,000 rpm for 10 minutes at 4°C in TLA 120.2 rotor. Sedimentation equilibrium analysis of MIIA^1851-1960 and S100A4 was conducted in six channel centerpieces by sequentially equilibrating the protein at three concentrations for 24 hr at 12,000, 20,000 and 28,000 rpm and globally analyzing the data using HeteroAnalysis v1.1.44 (James L. Cole and Jeffrey W. Lary). The sedimentation velocity experiments were conducted at 53,000 rpm using double sector centerpieces and analyzed using DCDT + v2.4.0 [57, 58]. The best-fit parameters and their 95% joint confidence intervals are reported. The calculated masses of the wild-type S100A4 and MIIA^1851-1960 monomers are 11,597.3 and 12,397.5 Da, respectively. Values of ν-bar = 0.715 for S100A4/MIIA^851-1960 and 0.735 for S100A4, ρ = 1.0059, μ = 1.00586 cp were calculated using Sednterp v1.06 (Hayes, B., T. Laue & J. Philo, Sedimentation Interpretation Program. 2003, University of New Hampshire) from the amino acid and buffer compositions, respectively.

For data set [7] the following is noted: submicromolar concentrations; ref [4], [27], [30]; cited from earlier work. As for the experimental part:
Given the similarity in the molecular weights of the S100A4 and MIIA^1851-1960 dimers, the S100A4/MIIA^1851-1960 complex was further evaluated in sedimentation velocity experiments where MIIA^1851-1960 was added to S100A4 at increasing molar ratios. […] At a molar ratio of 0.5:1 MIIA^1851-1960 dimer to S100A4 dimer there was a shift in the S val ...

Data set [8] deals with myosin-IIA rods (MIIA^1339−1960). Description: Promotion of disassembly assay, assembled myosin-IIA rods. Conditions: one S100A4Δ8C dimer per myosin-IIA rod; 1.5 μM S100A4 dimer, 1.5 μM rod dimer; 20 mM Tris–HCl pH 7.5, 150 mM NaCl, 1 mM DTT, 2 mM MgCl2, 0.5 mM CaCl2, 0.02% NaN3; 2 hr, 22°C; SDS-PAGE densitometry; two independent experiments. Format: biochemical. As for the experimental part:
Assays comparing the ability of wild-type and the Δ8C S100A4 to depolymerize assembled myosin-IIA rods were performed as described in Li et al., using 1.5 μM S100A4 dimer and 1.5 μM myosin-IIA rod dimer in 20 mM Tris–HCl pH 7.5, 150 mM NaCl, 1 mM DTT, 2 mM MgCl2, 0.5 mM CaCl2, and 0.02% NaN3. Reaction mixtures (100 μl) were incubated for 2 hr at 22°C and then centrifuged at 80,000 rpm (175000 g) for 10 min at 25°C in a TL-100 ultracentrifuge (Beckman). Samples of the reaction mixtures and supernatants were separated on a 12% Tris-Tricine SDS-polyacrylamide gel. Coomassie-stained gels were scanned and the extent of myosin-IIA polymerization was quantified by densitometry and analyzed with the ImageQuant version 5.2.

The target in data set [9] is T1, S100A4Δ8C. Description: Fluorescence anisotropy, FITC-MIIA^1904-1927 binding to S100A4Δ8C. Conditions: 22°C, 5 mM EGTA, data not shown. As for the experimental part: Fluorescence anisotropy measurements were performed at 22°C using a Fluoromax-3-spectrofluorometer (Jobin Yvon). Individual reactions (200 μl) contained 50 nM FITC-MIIA^1904-1927 and 0–30 μM S100A4Δ8C dimer in 20 mM Tris pH 7.5, 150 mM KCl, 1 mM DTT, 0.02% NaN3, 0.5 mM CaCl2 and 0.5 mg/ml BSA. For competition anisotropy measurements individual reactions contained 50 nM FITC-MIIA^1904-1927, 0.3 μM S100A4 dimer and 0–10 μM MIIA^1851-1960 dimer as described above. Controls included experiments representing maximum anisotropy (15 μM wild-type S100A4 and S100A4Δ8C, 50 nM FITC-MIIA^1904-1927 and calcium) and minimum anisotropy (in the absence of S100A4 and in the presence of S100A4 and 5 mM EGTA). Anisotropy was measured using excitation and emission wavelengths of 490 nm and 520 nm, respectively. Measurements were acquired at the magic angle of 55° between the vectors of polarization of the excitation and emission light using a G factor of 0.634 as determined previously for FITC on this instrument. For measurements of S100A4Δ8C binding, data from two independent experiments were plotted using Graphpad Prism v5, and the dissociation constant was calculated by fitting to a single site saturation binding equation allowing for a floating Ymin value. […]
On the technique in general: Polarisation of emitted light reports the rotation of a fluorescent probe.

[10] abbreviates: sedimentation velocity, 22°C, protein alone.

Consider six substances from publication PMC3924328, “Structure of the S100A4/myosin-IIA complex” (BMC Structural Biology, 2013).

The star is where a group is joined. FITC = O=C1OC2(c3ccc(O)cc3Oc3cc(O)ccc32)c2ccc(NC(=S)*)cc21; Ahx = NCCCCCC(=O)O

T1 sequence (P26447 2-93, stated change not applied): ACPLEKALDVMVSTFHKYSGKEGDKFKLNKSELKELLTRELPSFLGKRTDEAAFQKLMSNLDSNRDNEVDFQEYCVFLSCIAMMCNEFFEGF
T2 sequence (P26447 2-101 limits assumed, one chain of several): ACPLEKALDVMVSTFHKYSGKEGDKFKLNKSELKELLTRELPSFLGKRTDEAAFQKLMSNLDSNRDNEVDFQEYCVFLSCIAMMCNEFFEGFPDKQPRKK

For the substance “Ac-RRKLQRELEDATETADAMNREVSSLKNKLRR-CONH2 [MIIA^1893-1923]”, the “Dissociation constant, in words” value in [1] was “in the nanomolar range”.
For the substance “Ace-DAMNREVSSLKNKLRR-CONH2 [MIIA^1908-1923]”, the “Binding orientation to S100A4Δ8C versus wild-type S100A4” value in [2] (37°C, pH 6.5, 10 mM CaCl2) is “very similar structure/orientation in solution as observed for wild-type S100A4”. For the same substance, the “Exchange broadening of Ca^2+-bound S100A4Δ8C upon complex formation” value in data set [2] (data not shown) is “exchange broadening completely disappeared”. Moreover, in [3], the “Ca^2+-binding affinity of S100A4 when peptide bound” value is recorded as “higher Ca^2+-binding affinity”.
As to “MIIA^1893-1923-Cys-Proxyl: MIIA^1893-1923-Cys labeled with 3-maleimido-Proxyl spin label”, the “Residues with large reductions in cross-peak intensities” value in [4] (2.6 μM spin-labeled peptide) was “loop 1 (Asp25), the beginning of helix 3 (Asp51, Glu52) and in the C-terminal loop (Lys100)”. Besides, the “Location of peptide C-terminus on S100A4 by paramagnetic relaxation” value in data set [4] (2.6 and 5.3 μM spin-labeled peptide) is “near residues in helix 3 and the hinge (Leu46, Gly47, Asp51, Glu52”.
On to “S100A4: untagged, full-length human S100A4”, for which the Myosin-II isoform preference result in data set [5] was “preferentially recognizes and disassembles myosin-IIA rods”. The “Effect of S100A4 binding on dimeric myosin-IIA construct” value in data set [6] (longer, dimeric myosin-IIA construct) is “dissociates the two myosin-IIA polypeptide chains to form a complex composed of one S100A4 dimer and a single myosin-IIA polypeptide chain”. Further, the “Peak 1 S20,w” value in [6] (sedimentation velocity, 22°C, 53,000 rpm, protein alone, 20 mM Tris pH 7.5, 150 mM KCl, 0.5 mM CaCl2, 1 mM TCEP, 0.02% NaN3) was 1.90 ± 0.01. Further, in data set [6] (setting [10]), the “Peak 1 MW” value was 21.2 ± 0.3 kDa; the S value was found to be 1.9 S; the “[Peak 1] (green), relative amount of plateau concentrations” value was determined as 2.00 ± 0.02. The Dimer stability entry in data set [7] is given as “thermostable dimer at submicromolar concentrations”.
In the case of “S100A4Δ8C: S100A4 deletion mutant (deletion of the C-terminal eight amino acids)”, in data set [8], the Myosin-IIA filaments disassembled entry is “approximately 85%”.
As for “{FITC-Ahx}-TETADAMNREVSSLKNKLRRGDLP-NH2 [FITC-MIIA^1904-1927]”, in [9], the “Binding to S100A4Δ8C in the presence of EGTA” value was “no binding was observed”.
